Laboratory results taken from patent publication US20140357487A1, “PLANTS HAVING INCREASED TOLERANCE TO HERBICIDES” (BASF SE, priority 2011, published 2014).

Key:
Rhodococcus HPPD1 = assay: HPPD activity assay, Rhodococcus HPPD1; type: biochemical; conditions: normalized on Arabidopsis wild-type HPPD
Method: (§1) HPPD produces homogentisic acid and CO2 from 4-hydroxyphenylpyruvate (4-HPP) and O2. The activity assay for HPPD is based on the analysis of homogentisic acid by reversed phase HPLC.
(§2) The assay mixture can contain 150 mM potassium phosphate buffer pH 7.0, 50 mM L-ascorbic acid, 1 μM FeSO4 and 7 μg of purified enzyme in a total volume of 1 ml.
Inhibitors are dissolved in DMSO (dimethylsulfoxide) to a concentration of 20 mM or 0.5 mM, respectively. From this stock solution serial five-fold dilutions are prepared in DMSO, which are used in the assay. The respective inhibitor solution accounts for 1% of the assay volume. […]
Activities are normalized by setting the uninhibited enzyme activity to 100%. IC50 values are calculated using non-linear regression. […]
(§3) Inhibitors are dissolved in DMSO (dimethylsulfoxide) to a concentration of 0.5 mM. […] IC50 values are calculated using non-linear regression.
Using methods which are described in the above examples or well known in the art, purified, recombinant wildtype HPPD enzymes are characterized with respect to their kinetic properties and sensitivity towards HPPD inhibiting herbicides. Apparent michaelis constants (Km) and maximal reaction velocities (Vmax) are calculated by non-linear regression with the software GraphPad Prism 5 (GraphPad Software, La Jolla, USA) using a substrate inhibition model. […]

Poa HPPD = assay: HPPD activity assay, Poa HPPD; type: biochemical; conditions: normalized on Arabidopsis wild-type HPPD
Method: as §1, §2
Inhibitors are dissolved in DMSO (dimethylsulfoxide) to a concentration of 20 mM or 0.5 mM, respectively. From this stock solution serial five-fold dilutions are prepared in DMSO, which are used in the assay. The respective inhibitor solution accounts for 1% of the assay volume. Thus, final inhibitor concentrations range from 200 μM to 2.5 nM or from 5 μM to 63 pM, respectively. After a preincubation of 30 min the reaction is started by adding 4-HPP to a final concentration of 0.1 mM. The reaction is allowed to proceed for 120 min at room temperature. The reaction is stopped by addition of 100 μl of 4.5 M phosphoric acid.
Activities are normalized by setting the uninhibited enzyme activity to 100%. IC50 values are calculated using non-linear regression.
The assay mixture can contain 150 mM potassium phosphate buffer pH 7.0, 50 mM L-ascorbic acid, 100 μM Catalase (Sigma-Aldrich), 1 μM FeSO4 and 0.2 units of purified HPPD enzyme in a total volume of 505 μl. […]
as §3
Using methods which are described in the above examples or well known in the art, purified, recombinant wildtype HPPD enzymes are characterized with respect to their kinetic properties and sensitivity towards HPPD inhibiting herbicides. Apparent michaelis constants (Km) and maximal reaction velocities (Vmax) are calculated by non-linear regression with the software GraphPad Prism 5 (GraphPad Software, La Jolla, USA) using a substrate inhibition model. […] Weighted means (by standard error) of Km and […] values are calculated from at least three independent experiments. […]

[1] = test system: transgenic soybean plants, Arabidopsis M335Y, event SDS-9866; assay: Greenhouse testing of transgenic soybean plants, Arabidopsis M335Y; type: in vivo, Glycine max; conditions: soybean SDS-9866, 5 days after herbicide treatment, average of 8 T1
Text: Various methods for the production of stably transformed plants are well known in the art. Coumarone-derivative herbicide tolerant soybean (Glycine max) or corn (Zea mays) plants can be produced by a method described by Olhoft et al. (US patent 2009/0049567). Briefly, HPPD or HST encoding polynucleotides are cloned into a binary vector using standard cloning techniques as described by Sambrook et al. (Molecular cloning (2001) Cold Spring Harbor Laboratory Press). The final vector construct contains an HPPD or HST encoding sequence flanked by a promoter sequence (e.g. the ubiquitin promoter (PcUbi) sequence) and a terminator sequence (e.g. the nopaline synthase terminator (NOS) sequence) and a resistance marker gene cassette (e.g. AHAS) (FIG. 2). Optionally, the HPPD or HST gene can provide the means of selection. Agrobacterium-mediated transformation is used to introduce the DNA into soybean's axillary meristem cells at the primary node of seedling explants. After inoculation and co-cultivation with Agrobacteria, the explants are transferred to shoot induction medium without selection for one week. The explants are subsequently transferred to shoot induction medium with 1-3 μM imazapyr (Arsenal) for 3 weeks to select for transformed cells. Explants with healthy callus/shoot pads at the primary node are then transferred to shoot elongation medium containing 1-3 μM imazapyr until a shoot elongates or the explant dies. After regeneration, transformants are transplanted to soil in small pots, placed in growth chambers (16 hr day/8 hr night; 25° C. day/23° C. night; 65% relative humidity; 130-150 mE m−2 s−1) and subsequently tested for the presence of the T-DNA via Taqman analysis. After a few weeks, healthy, transgenic positive, single copy events are transplanted to larger pots and allowed to grow in the growth chamber. Transformation of corn plants is done by a method described by McElver and Singh (WO 2008/124495). Plant transformation vector constructs containing HPPD or HST sequences are introduced into maize immature embryos via Agrobacterium-mediated transformation. Transformed cells are selected in selection media supplemented with 0.5-1.5 μM imazethapyr for 3-4 weeks. Transgenic plantlets are regenerated on plant regeneration media and rooted afterwards. Transgenic plantlets are subjected to TaqMan analysis for the presence of the transgene before being transplanted to potting mixture and grown to maturity in greenhouse. Arabidopsis thaliana is transformed with HPPD or HST sequences by floral dip method as described by McElver and Singh (WO 2008/124495). Transgenic Arabidopsis plants are subjected to Tag Man analysis for analysis of the number of integration loci. Transformation of Oryza sativa (rice) are done by protoplast transformation as described by Peng et al. (U.S. Pat. No. 6,653,529)
Transgenic plants expressing heterologous HPPD or HST enzymes are tested for tolerance against coumarone-derivative herbicides in greenhouse experiments.
For post emergence treatment, the test plants are first grown to a height of 3 to 15 cm, depending on the plant habit, and only then treated with the herbicides. For this purpose, the test plants are either sown directly and grown in the same containers, or they are first grown separately and transplanted into the test containers a few days prior to treatment.
Depending on the species, the plants are kept at 10-25° C. or 20-35° C. The test period extends over 3 weeks. During this time, the plants are tended and their response to the individual treatments is evaluated. […] Tolerance to coumarone-derivative herbicides can also be assessed in Arabidopsis. In this case transgenic Arabidopsis thaliana plants are assayed for improved tolerance to coumarone-derivative herbicides in 48-well plates. Seeds are surface sterilized by stirring for 5 min in ethanol+water (70+30 by volume), rinsing one time with ethanol+water (70+30 by volume) and two times with a sterile, deionized water. […]

COCCOCc1c(Cl)ccc(C2=C(O)c3ncccc3C(C)(C)S2(=O)=O)c1Cl [Inhibitor 3, 7-[2,4-dichloro-3-(2-methoxyethoxymethyl)phenyl]-5,5-dimethyl-6,6-dioxo-thiopyrano[4,3-b]pyridin-8-ol]
Normalized tolerance index TI (Rhodococcus HPPD1): 1.6

CC1(C)c2cccnc2C(O)=C(c2ccc(Cl)nc2Cl)S1(=O)=O [Inhibitor 2, 7-(2,6-dichloro-3-pyridyl)-5,5-dimethyl-6,6-dioxo-thiopyrano[4,3-b]pyridin-8-ol]
Normalized tolerance index TI (Poa HPPD): 1.1 | Injury evaluation, scale of 1-100, bleaching phenotype ([1]; 2.5 g/ha): 4 | Injury evaluation, scale of 1-100, bleaching phenotype ([1]; 10 g/ha): 5 | Injury evaluation, scale of 1-100, bleaching phenotype ([1]; 40 g/ha): 10

Cc1c(C(=O)c2cnn(C)c2O)ccc(S(C)(=O)=O)c1C1=NOCC1 [Topramezone, reference compound]
Injury evaluation, scale of 1-100, bleaching phenotype ([1]; 6.25 g/ha): 4 | Injury evaluation, scale of 1-100, bleaching phenotype ([1]; 25 g/ha): 8 | Injury evaluation, scale of 1-100, bleaching phenotype ([1]; 100 g/ha): 23

CC1=NOC(c2c(Cl)ccc(C3=C(O)c4ncccc4C(C)(C)S3(=O)=O)c2Cl)C1 (stereo not shown) [Inhibitor 1, 7-[2,4-dichloro-3-(3-methyl-4,5-dihydroisoxazol-5-yl)phenyl]-5,5-dimethyl-6,6-dioxo-thiopyrano[4,3-b]pyridin-8-ol]
Normalized tolerance index TI (Poa HPPD): 2.1 | Normalized tolerance index TI (Rhodococcus HPPD1): 39
